Test results reported in paper PMC3911823 (The FEBS journal, 2011).
Numbering of substitutions follows the chain as printed. “Also recorded” adds a separate entry of the source.

Tests used:
Format in all cases: biochemical, rabbit (Oryctolagus cuniculus)
P450 2B4 E474Q [1] = molecular target: T1, P450 2B4 E474Q (Oryctolagus cuniculus, UniProt P00178, E474Q)
T1 sequence (P00178 with tags, fused parts or gaps E474Q limits assumed): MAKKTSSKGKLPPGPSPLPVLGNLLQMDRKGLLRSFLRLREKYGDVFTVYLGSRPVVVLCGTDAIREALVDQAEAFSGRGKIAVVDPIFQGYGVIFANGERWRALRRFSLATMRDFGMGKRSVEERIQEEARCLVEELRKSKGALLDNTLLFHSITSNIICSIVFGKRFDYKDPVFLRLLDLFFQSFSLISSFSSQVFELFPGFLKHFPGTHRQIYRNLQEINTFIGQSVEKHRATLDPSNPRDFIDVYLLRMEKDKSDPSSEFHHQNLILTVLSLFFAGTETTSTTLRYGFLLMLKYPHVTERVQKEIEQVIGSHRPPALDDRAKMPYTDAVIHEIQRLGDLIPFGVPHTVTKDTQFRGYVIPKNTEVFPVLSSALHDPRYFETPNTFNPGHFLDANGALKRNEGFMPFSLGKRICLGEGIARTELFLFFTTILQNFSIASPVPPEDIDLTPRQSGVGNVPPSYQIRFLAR

P450 2B4 E474D [2] = molecular target: T2, P450 2B4 E474D (Oryctolagus cuniculus, UniProt P00178, E474D)
T2 sequence (P00178 with tags, fused parts or gaps E474D limits assumed): T1 sequence (P00178 with tags, fused parts or gaps E474Q limits assumed) with Q455D

P450 2B4 L437A = molecular target: T3, P450 2B4 L437A (Oryctolagus cuniculus, UniProt P00178, L437A)
T3 sequence (P00178 with tags, fused parts or gaps L437A limits assumed): T1 sequence (P00178 with tags, fused parts or gaps E474Q limits assumed) with L418A, Q455E

P450 2B4 H172A [3] = molecular target: T4, P450 2B4 H172A (Oryctolagus cuniculus, UniProt P00178, H172A)
T4 sequence (P00178 with tags, fused parts or gaps H172A limits assumed): T1 sequence (P00178 with tags, fused parts or gaps E474Q limits assumed) with H153A, Q455E

P450 2B4 E474Q [4] = molecular target: T1, P450 2B4 E474Q; assay: Inhibition of 7-EFC O-deethylation by imidazole inhibitors
P450 2B4 E474D [5] = molecular target: T2, P450 2B4 E474D; assay: as above
P450 2B4 H172A [6] = molecular target: T4, P450 2B4 H172A; assay: as above

With `O=c1ccc2nc3ccc(OCc4ccccc4)cc3oc-2c1` [7-BR, 7-benzyloxyresorufin] the “decrease (change) in kcat versus wild type” value (“decrease (change)” below) (P450 2B4 E474Q [1]) was ~ 4.5 fold, the kcat (P450 2B4 E474Q [1]) was 0.0283 ± 0.005 s⁻¹ and the kcat/S50 (P450 2B4 E474Q [1]) was 0.35. The S50 (P450 2B4 E474Q [1]; Hill equation) was 4.8 ± 0.5 µM, the “decrease (change)” value (P450 2B4 E474D [2]) was ~ 2.5 fold and the kcat (P450 2B4 E474D [2]) was 0.0517 ± 0.0033 s⁻¹. For the same compound, the kcat/S50 (P450 2B4 E474D [2]) was 0.5, the S50 (P450 2B4 E474D [2]; Hill equation) was 6.2 ± 0.7 µM and the kcat (P450 2B4 L437A) was 0 s⁻¹. For the same compound, the kcat/S50 (P450 2B4 L437A) was 0, the “substrate turnover (activity)” value (P450 2B4 L437A) was “did not turn over; also recorded: no activity” and the “decrease (change)” value (P450 2B4 H172A [3]) was ~ 19 fold. It also gave a kcat (P450 2B4 H172A [3]) of 0.0067 ± 0.0017 s⁻¹, a kcat/S50 (P450 2B4 H172A [3]) of 0.08 and an S50 (P450 2B4 H172A [3]; Hill equation) of 5.0 ± 0.8 µM.

With `Clc1ccc(-c2c[nH]cn2)cc1` [4-CPI, 4-(4-chlorophenyl)imidazole] the IC50 (P450 2B4 E474Q [4]) was 0.5 µM, the “Ratio 4-CPI IC50/Bifonazole IC50” value (P450 2B4 E474Q [4]; 2B4 E474Q, 50 μM 7-EFC as substrate) was 0.62 and the IC50 (P450 2B4 E474D [5]) was 0.24 µM. The “Ratio 4-CPI IC50/Bifonazole IC50” value (P450 2B4 E474D [5]; 2B4 E474D, 50 μM 7-EFC as substrate) was 0.39, the IC50 (P450 2B4 H172A [6]) was 0.31 µM and the “Ratio 4-CPI IC50/Bifonazole IC50” value (P450 2B4 H172A [6]; 2B4 H172A, 50 μM 7-EFC as substrate) was 0.53.
